Measured values published in ChEMBL document CHEMBL3272143, “Synthesis of heteroaromatic potential beta-adrenergic antagonists by the glycidol route” (1978).

How the values were obtained:
Type in all cases: functional
[1] = system: Canis familiaris; experiment: Inhibition of isoproterenol-induced increase in heart rate in bilaterally vagotomized open chest mongrel dog model at 0.1 mg/kg, iv administered 10 to 20 mins prior to and following isoproterenol challenge; settings: Canis lupus familiaris
[2] = system: Canis familiaris; experiment: Inhibition of isoproterenol-induced increase in heart rate in bilaterally vagotomized open chest mongrel dog model at 0.42 mg/kg, iv administered 10 to 20 mins prior to and following isoproterenol challenge; settings: Canis lupus familiaris
[3] = system: Canis familiaris; experiment: Inhibition of isoproterenol-induced increase in heart rate in bilaterally vagotomized open chest mongrel dog model at 1.42 mg/kg, iv administered 10 to 20 mins prior to and following isoproterenol challenge; settings: Canis lupus familiaris
[4] = system: Canis familiaris; experiment: Inhibition of isoproterenol-induced increase in heart rate in bilaterally vagotomized open chest mongrel dog model at 4.58 mg/kg, iv administered 10 to 20 mins prior to and following isoproterenol challenge; settings: Canis lupus familiaris
[5] = system: Canis familiaris; experiment: Inhibition of isoproterenol-induced increase in heart rate in bilaterally vagotomized open chest mongrel dog model at 14.58 mg/kg, iv administered 10 to 20 mins prior to and following isoproterenol challenge; settings: Canis lupus familiaris
[6] = system: Canis familiaris; experiment: Inhibition of isoproterenol-induced decrease in diastolic blood pressure in bilaterally vagotomized open chest mongrel dog model at 0.1 mg/kg, iv administered 10 to 20 mins prior to and following isoproterenol challenge; settings: Canis lupus familiaris, Artery
[7] = system: Canis familiaris; experiment: Inhibition of isoproterenol-induced decrease in diastolic blood pressure in bilaterally vagotomized open chest mongrel dog model at 0.42 mg/kg, iv administered 10 to 20 mins prior to and following isoproterenol challenge; settings: Canis lupus familiaris, Artery
[8] = system: Canis familiaris; experiment: Inhibition of isoproterenol-induced decrease in diastolic blood pressure in bilaterally vagotomized open chest mongrel dog model at 1.42 mg/kg, iv administered 10 to 20 mins prior to and following isoproterenol challenge; settings: Canis lupus familiaris, Artery
[9] = system: Canis familiaris; experiment: Inhibition of isoproterenol-induced decrease in diastolic blood pressure in bilaterally vagotomized open chest mongrel dog model at 4.58 mg/kg, iv administered 10 to 20 mins prior to and following isoproterenol challenge; settings: Canis lupus familiaris, Artery
[10] = system: Canis familiaris; experiment: Inhibition of isoproterenol-induced decrease in diastolic blood pressure in bilaterally vagotomized open chest mongrel dog model at 14.58 mg/kg, iv administered 10 to 20 mins prior to and following isoproterenol challenge; settings: Canis lupus familiaris, Artery
[11] = system: Canis familiaris; experiment: Inhibition of isoproterenol-induced increase in heart rate in iv dosed bilaterally vagotomized open chest mongrel dog model administered 10 to 20 mins prior to and following isoproterenol challenge; settings: Canis lupus familiaris
[12] = system: Canis familiaris; experiment: Inhibition of isoproterenol-induced decrease in diastolic blood pressure in iv dosed bilaterally vagotomized open chest mongrel dog model administered 10 to 20 mins prior to and following isoproterenol challenge; settings: Canis lupus familiaris, Artery
[13] = system: Canis familiaris; experiment: Inhibition of isoproterenol-induced increase in heart rate in bilaterally vagotomized open chest mongrel dog model at 0.03 mg/kg, iv administered 10 to 20 mins prior to and following isoproterenol challenge; settings: Canis lupus familiaris
[14] = system: Canis familiaris; experiment: Inhibition of isoproterenol-induced increase in heart rate in bilaterally vagotomized open chest mongrel dog model at 0.13 mg/kg, iv administered 10 to 20 mins prior to and following isoproterenol challenge; settings: Canis lupus familiaris
[15] = system: Canis familiaris; experiment: Inhibition of isoproterenol-induced increase in heart rate in bilaterally vagotomized open chest mongrel dog model at 0.45 mg/kg, iv administered 10 to 20 mins prior to and following isoproterenol challenge; settings: Canis lupus familiaris
[16] = system: Canis familiaris; experiment: Inhibition of isoproterenol-induced increase in heart rate in bilaterally vagotomized open chest mongrel dog model at 1.45 mg/kg, iv administered 10 to 20 mins prior to and following isoproterenol challenge; settings: Canis lupus familiaris
[17] = system: Canis familiaris; experiment: Inhibition of isoproterenol-induced increase in heart rate in bilaterally vagotomized open chest mongrel dog model at 4.61 mg/kg, iv administered 10 to 20 mins prior to and following isoproterenol challenge; settings: Canis lupus familiaris
[18] = system: Canis familiaris; experiment: Inhibition of isoproterenol-induced decrease in diastolic blood pressure in bilaterally vagotomized open chest mongrel dog model at 0.03 mg/kg, iv administered 10 to 20 mins prior to and following isoproterenol challenge; settings: Canis lupus familiaris, Artery
[19] = system: Canis familiaris; experiment: Inhibition of isoproterenol-induced decrease in diastolic blood pressure in bilaterally vagotomized open chest mongrel dog model at 0.13 mg/kg, iv administered 10 to 20 mins prior to and following isoproterenol challenge; settings: Canis lupus familiaris, Artery
[20] = system: Canis familiaris; experiment: Inhibition of isoproterenol-induced decrease in diastolic blood pressure in bilaterally vagotomized open chest mongrel dog model at 0.45 mg/kg, iv administered 10 to 20 mins prior to and following isoproterenol challenge; settings: Canis lupus familiaris, Artery
[21] = system: Canis familiaris; experiment: Inhibition of isoproterenol-induced decrease in diastolic blood pressure in bilaterally vagotomized open chest mongrel dog model at 1.45 mg/kg, iv administered 10 to 20 mins prior to and following isoproterenol challenge; settings: Canis lupus familiaris, Artery
[22] = system: Canis familiaris; experiment: Inhibition of isoproterenol-induced decrease in diastolic blood pressure in bilaterally vagotomized open chest mongrel dog model at 4.61 mg/kg, iv administered 10 to 20 mins prior to and following isoproterenol challenge; settings: Canis lupus familiaris, Artery

Row | Compound | inhibition in vivo at 0.1 mg/kg [1] [%] | inhibition in vivo at 0.42 mg/kg [2] [%] | inhibition in vivo at 1.42 mg/kg [3] [%] | inhibition in vivo at 4.58 mg/kg [4] [%] | inhibition in vivo at 14.58 mg/kg [5] [%] | inhibition in vivo at 0.1 mg/kg [6] [%] | inhibition in vivo at 0.42 mg/kg [7] [%] | inhibition in vivo at 1.42 mg/kg [8] [%] | inhibition in vivo at 4.58 mg/kg [9] [%] | inhibition in vivo at 14.58 mg/kg [10] [%] | ED50 [11] [mg/kg] | ED50 [12] [mg/kg] | also measured
1 | CC(C)NCC(O)COc1cc(Cl)nc(-c2ccccc2)n1 (configuration not stated) | 3 | 6 | 18 | 16.7 | 49 | 5 | 16.5 | 10.3 | 21 | 19 | > 14.6 | > 14.6 | 
2 | CC(C)NCC(O)COc1cccc2ccccc12 (configuration not stated) [PROPRANOLOL] |  |  |  |  |  |  |  |  |  |  | 0.09 | 0.06 | inhibition in vivo at 0.03 mg/kg [13]: 24.7%; inhibition in vivo at 0.13 mg/kg [14]: 62%; inhibition in vivo at 0.45 mg/kg [15]: 85.2%; inhibition in vivo at 1.45 mg/kg [16]: 95.8%; inhibition in vivo at 4.61 mg/kg [17]: 98.4%; inhibition in vivo at 0.03 mg/kg [18]: 40.5%; inhibition in vivo at 0.13 mg/kg [19]: 63.5%; inhibition in vivo at 0.45 mg/kg [20]: 80.8%; inhibition in vivo at 1.45 mg/kg [21]: 90.7%; inhibition in vivo at 4.61 mg/kg [22]: 96.6%
3 | CC(C)(C)NCC(O)COc1nc(-c2ccccc2)ns1 (configuration not stated) | 7 | 5.7 | 9.5 | 23.8 | 68 | 3.7 | 5.3 | 16.5 | 41.5 | 100 | 19.3 | 4.9 | 
4 | CC(C)(C)NCC(O)COc1nnnn1-c1ccccc1 (configuration not stated) | 5.7 | 10.5 | 32.5 | 63 | 91 | 6.7 | 21.2 | 44.8 | 76.2 | 98.7 | 3 | 1.5 | 
5 | Cc1nsc(OCC(O)CNC(C)(C)C)n1 (configuration not stated) | 15 | 24.2 | 39.5 | 59.8 | 92.3 | 7.7 | 12.8 | 35.5 | 55.5 | 85.3 | 3.6 | 3.5 | 
6 | CC(C)(C)NCC(O)COc1ncns1 (configuration not stated) | 23.5 | 49.5 | 70 | 91 | 97.5 | 3 | 1 | 13.5 | 50 | 76.5 | 0.4 | 5.7 | 
